Experimental data taken from patent US7312360B2, “Substituted hydroxyethylamines” (Elan Pharmaceuticals, Inc., priority 2001, dated 2007).

CCCCOc1cccc(C[C@H](N)[C@H](O)CNCc2cccc(CC)c2)c1.Cl.Cl
melting point: 197 to 199 °C

CCCCCCOc1cccc(C[C@H](NC(=O)c2coc(NS(C)(=O)=O)n2)[C@H](O)CNCc2cccc(CC)c2)c1 [Example 45, N-{(1S,2R)-3-[(3-ethylbenzyl)amino]-1-[3-(hexyloxy)benzyl]-2-hydroxypropyl}-2-[(methylsulfonyl)amino]-1,3-oxazole-4-carboxamide]
melting point: 85 to 90 °C

CCCCOc1cccc(C[C@H](NC(=O)c2coc(NS(C)(=O)=O)n2)[C@H](O)CNCc2cccc(CC)c2)c1 [Example 50a, N-{(1S,2R)-1-(3-butoxybenzyl)-3-[(3-ethylbenzyl)amino]-2-hydroxypropyl}-2-[(methylsulfonyl)amino]-1,3-oxazole-4-carboxamide]
melting point: 78 to 80 °C

CCCCOc1cccc(C[C@H](NC(C)=O)[C@H](O)CNCc2cccc(CC)c2)c1 [Example 50b, N-{(1S,2R)-1-(3-butoxybenzyl)-3-[(3-ethylbenzyl)amino]-2-hydroxypropyl}acetamide]
melting point: 112 to 114 °C

CCCCCCOc1cccc(C[C@H](NC(=O)c2cccc(-c3ncco3)c2)[C@H](O)CNCc2cccc(CC)c2)c1 [Example 93A, N-{(1S,2R)-3-[(3-ethylbenzyl)amino]-1-[3-(hexyloxy)benzyl]-2-hydroxypropyl}-3-(1,3-oxazol-2-yl)benzamide]
melting point: 117 to 120 °C

CCCCCCOc1cccc(C[C@H](NC(C)=O)[C@H](O)CNCc2cccc(CC)c2)c1 [Example 93B, N-{(1S,2R)-3-[(3-ethylbenzyl)amino]-1-[3-(hexyloxy)benzyl]-2-hydroxypropyl}acetamide]
melting point: 102 to 105 °C
